Source: ChEMBL document CHEMBL1132252, “Nonapeptide analogues containing (R)-3-hydroxybutanoate and beta-homoalanine oligomers: synthesis and binding affinity to a class I major histocompatibility complex protein” (1999)
Non-standard residues stand in square brackets, D forms with d. Residues, ends and D or L forms follow the SMILES beside them. *: point of attachment. X1 = C[C@H](CC(=O)N[C@@H](CCCCN)C(=O)O)OC(=O)C[C@H](C)NC(=O)C[C@@H](C)O*; β3hA = C[C@H](N)CC(=O)O

System: RMA-S
Assay: The compound was tested for binding affinity against murine RMA-S cells transfected with B*2705 by FMC analysis.
Assay type: functional, Mus musculus

Compound | C50 [µM]
C[C@H](CC(=O)N[C@H](C)CC(=O)N[C@@H](CCCCN)C(=O)O)NC(=O)C[C@@H](C)NC(=O)C[C@@H](C)NC(=O)[C@H](C)NC(=O)[C@H](CCCN=C(N)N)NC(=O)CN.O=C(O)C(F)(F)F.O=C(O)C(F)(F)F.O=C(O)C(F)(F)F | 2.8
C[C@H](CC(=O)N[C@@H](CCCCN)C(=O)O)NC(=O)C[C@H](C)NC(=O)C[C@@H](C)NC(=O)C[C@H](C)NC(=O)[C@H](C)NC(=O)[C@H](CCCN=C(N)N)NC(=O)CN.O=C(O)C(F)(F)F.O=C(O)C(F)(F)F.O=C(O)C(F)(F)F | 4.8
C[C@H](NC(=O)[C@H](CCCN=C(N)N)NC(=O)CN)C(=O)N[C@@H](C)CC(=O)N[C@@H](C)CC(=O)N[C@@H](C)CC(=O)N[C@@H](C)CC(=O)N[C@@H](CCCCN)C(=O)O | 6
C[C@H](CC(=O)N[C@@H](C)CC(=O)N[C@@H](C)CC(=O)N[C@@H](CCCCN)C(=O)O)NC(=O)C[C@@H](C)NC(=O)[C@H](C)NC(=O)[C@H](CCCN=C(N)N)NC(=O)CN | 30
C[C@H](CC(=O)N[C@@H](C)CC(=O)N[C@@H](C)CC(=O)N[C@@H](CCCCN)C(=O)O)OC(=O)C[C@@H](C)OC(=O)[C@H](C)NC(=O)[C@H](CCCN=C(N)N)NC(=O)CN | 17
C[C@H](CC(=O)N[C@@H](CCCCN)C(=O)O)OC(=O)C[C@H](C)NC(=O)C[C@@H](C)OC(=O)C[C@H](C)NC(=O)[C@H](C)NC(=O)[C@H](CCCN=C(N)N)NC(=O)CN (H-GRA[β3hA]-X1) | 2.8
H-GRAFVTIGK-OH | 2.8
